These results are taken from paper PMC12509006, “Synthesis and Evaluation of Pyridine-Based Antibacterial Agents that Inhibit ATP Synthase in Acinetobacter baumannii” (ACS Omega, 2025).

In brackets after ≈: the same amount, converted by molar mass. Some results are limits rather than exact numbers.

Series [1] has as its target T1, A. baumannii ATP synthase (Acinetobacter baumannii, UniProt A3M139).
T1 construct: endogenous electron transport chains of inverted inner membrane vesicles were energized with NADH; endogenous in cells; host or cells: inverted inner membrane vesicles prepared from A. baumannii ATCC 17978 cells
As to the kind of experiment: AB ATP synthase inhibition: NADH-driven ATP synthesis in inverted inner membrane vesicles, luciferin/luciferase readout. In kind it is biochemical. As to conditions: for Hill coefficient (Hill slope): fit of ATP synthesis dose response curve; for IC50: inverted inner membrane vesicles, 0.0625-64 µg/mL, n≥3, Table S1, read-out: AB ATP Synthase Inhibition IC50 (converted). The procedure:
Once synthesized, the pyridine compounds were tested for their ability to inhibit ATP synthase activity using our previously reported luciferin/luciferase assay. Briefly, endogenous electron transport chains of inverted inner membrane vesicles were energized with NADH to generate a proton gradient and to drive ATP synthesis. ATP was measured via luminescence from the luciferase-catalyzed oxidation of D-luciferin. Luminescence activities across increasing inhibitor concentrations were corrected for gradient independent background sources of ATP by comparison with a control containing the protonophore CCCP (carbonyl cyanide 3-chlorophenylhydrazone). The data were then fit to a four-parameter logistic dose–response curve, from which IC50 values and Hill coefficients were determined using a nonlinear least-squares regression.
A. baumannii (ATCC 17978) cells were grown in LB medium at 37 °C with shaking at 150 rpm and harvested by centrifugation in the late exponential phase of growth. Cells were resuspended in TMG buffer (50 mM Tris-HCl, pH 7.5, 5 mM MgCl2, 10% v/v glycerol) with 1 mM phenylmethanesulfonyl fluoride, 1 mM dithiothreitol, and a small amount of DNase and lysed by two passes through an Avestin B15 homogenizer at 19,000 psi. Lysate was cleared by centrifugation at 9000g and inverted membrane vesicles were collected from the supernatant by centrifugation at 169,000g. To reduce background ATP synthesis activity in AB vesicles, it was important to wash the membranes by resuspending in TMG buffer and centrifuging again at 169,000g. Washed pellets were resuspended in TMG buffer, and aliquots were stored at −80 °C. Once thawed, aliquots were not refrozen. Protein concentration in membrane vesicles was determined using a modified Lowry assay.
In vitro ATP synthesis activity of inverted inner membrane vesicles was measured as previously described. A reaction solution was prepared containing 5 mM tricine-KOH, pH 8.0, 50 mM KCl, 2.5 mM MgCl2, 0.1 mM adenosine diphosphate, 3.75 mM potassium phosphate, and 2.5 mM NADH and distributed into a 96-well plate. NADH-driven ATP synthesis was initiated by addition of inverted vesicles to 50 μg/mL and allowed to proceed for 10 min. The reaction was stopped by transferring an aliquot into 1% trichloroacetic acid. The stopped reaction was diluted 100-fold with deionized water and a sample was transferred to luciferase solution containing 25 mM tricine-NaOH, pH 7.8, 5 mM MgSO4, 0.1 mM EDTA, 0.1 mM NaN3, 150 μg/mL luciferin, and 7.5 μg/mL luciferase. Luminescence was measured in an opaque white 96-well plate using a BioTek H1 multimode plate reader. Each replicate set included a positive control containing DMSO with no compound and a negative control containing carbonyl cyanide 3-chlorophenylhydrazone (CCCP). Luminescence values were corrected for background by subtracting the CCCP control and normalized to the luminescence of the DMSO control. Normalized activity was fit using a variable-slope dose response curve. Nonlinear regression, including prediction of 95% confidence bands, and pairwise comparisons of fits using the F-test method were completed using GraphPad Prism10. Relativeactivity=1/1+(c/IC50)^Hillslope […]
Figure S1. ATP synthesis inhibition by all pyridine compounds in order of WSA compound number. ATP synthesis activities in inverted inner membrane vesicles prepared from AB cells were measured in the presence of 0.0625-64 µg/mL, corrected for background ATP, and normalized to activity with DMSO alone (see methods). For each plot, dots are normalized activities at each concentration (n≥3) on a log 2 scale, solid lines are fitted dose response curves, and dashed lines show the 95% confidence range of the fit. IC50

The subject of series [2] is HEK 293 cells. As to the kind of experiment: XTT cell viability cytotoxicity assay. As to conditions: n = 3, 24 h treatment.
Series [3] has as its system MDR AB BAA 1605. As to the kind of experiment: Broth microdilution antimicrobial susceptibility assay, MDR isolate. Conditions: Acinetobacter baumannii, BAA1605, read-out: MIC, MDR AB BAA 1605. (Dilution methods test growth across graded concentrations, often in twofold steps.)
Series [4] has as its system AB ATCC 17978. As to the kind of experiment: Broth microdilution antimicrobial susceptibility assay, susceptible isolate. As to conditions: Acinetobacter baumannii, ATCC17978, read-out: MIC, AB ATCC 17978.

T1 sequence (A3M139 whole entry): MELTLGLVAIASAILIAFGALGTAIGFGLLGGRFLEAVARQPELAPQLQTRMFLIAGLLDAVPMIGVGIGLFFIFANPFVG

A word on the IC50: it is the point on the concentration scale where inhibition reaches its midpoint. The MIC is the smallest concentration in the dilution series that meets the test's criterion for growth inhibition. As for `Cc1ccc(-c2cnc(SCc3ccccc3)c(CNCc3ccc(CN4CCCC4)cc3)c2)cc1` [WSA 295], in series [1], the “Hill coefficient (Hill slope)” value is given as -0.7 and the concentration for half-maximal inhibition (IC50) was 1090 nM. Besides, in series [2], the “MIC, HEK 293 (cytotoxicity)” value was 16 µg/mL (≈ 32.4 µM). Moreover, the MIC in series [3] turned out to be 128 µg/mL (≈ 259 µM). Also, the minimum inhibitory concentration (MIC) in series [4] turned out to be 32 µg/mL (≈ 64.8 µM).

Consider `CN1CCN(CCNCc2cccnc2SCc2ccccc2)CC1` [WSA 268], for which, in series [1], the “Hill coefficient (Hill slope)” value is recorded as -0.5 and the 50% inhibitory concentration (IC50) was above 180000 nM. In addition, in series [3], the MIC is above 128 µg/mL. Besides, the minimal inhibitory concentration (MIC) in series [4] is above 128 µg/mL.

For `CN(C)c1ccc(-c2cnc(SCc3ccccc3)c(CNCCC3CCN(C4CCCC4)CC3)c2)cc1` [WSA 303], in series [1], the “Hill coefficient (Hill slope)” value was -1.2 and the IC50 is 1190 nM. Moreover, the “MIC, HEK 293 (cytotoxicity)” value in series [2] was found to be 4 µg/mL (≈ 7.56 µM). The minimal inhibitory concentration (MIC) in series [3] was determined as 128 µg/mL (≈ 242 µM). In series [4], the MIC came out at 64 µg/mL (≈ 121 µM).

`CCN1CCC(CCNCc2cccnc2SCc2ccccc2)CC1` [WSA 264]: in series [1], the “Hill coefficient (Hill slope)” value was -0.8 and the IC50 was 83900 nM. Further, the MIC in series [3] is above 128 µg/mL. Further, the MIC in series [4] is above 128 µg/mL.

As for `c1ccc(CSc2ncccc2CNCCC2CCN(C3CCCC3)CC2)cc1` [WSA 265], the “Hill coefficient (Hill slope)” value in series [1] is -0.7. Besides, in series [1], the 50% inhibitory concentration (IC50) was 132000 nM. Also, the minimal inhibitory concentration (MIC) in series [3] and in series [4] was above 128 µg/mL in each case.

For `CCN1CCC(CCNCc2cc(-c3ccc(OC)cc3)cnc2SCc2ccccc2)CC1` [WSA 305], the “Hill coefficient (Hill slope)” value in series [1] is reported as -0.6; in series [1] (listed as WSA305), -0.7. Also, the concentration for half-maximal inhibition (IC50) in series [1] was 568 nM. Besides, the “MIC, HEK 293 (cytotoxicity)” value in series [2] stood at 4 µg/mL (≈ 8.41 µM). The MIC in series [3] and in series [4] was 32 µg/mL (≈ 67.3 µM) in each case.

On to `Fc1ccc(-c2cnc(SCc3ccccc3)c(CNCCC3CCN(C4CCCC4)CC3)c2)cc1` [WSA 291], for which, in series [1], the “Hill coefficient (Hill slope)” value is on record as -1.1 and the IC50 is 1190 nM. Also, the “MIC, HEK 293 (cytotoxicity)” value in series [2] is below 2 µg/mL. Besides, the MIC in series [3] stood at 32 µg/mL (≈ 63.5 µM). Besides, in series [4], the minimal inhibitory concentration (MIC) was 32 µg/mL (≈ 63.5 µM).

For `Brc1cnc(SCc2ccccc2)c(CNCCC2CCN(C3CCCC3)CC2)c1` [WSA 301], in series [1], the “Hill coefficient (Hill slope)” value was -0.5. Further, the IC50 in series [1] is 2660 nM. Moreover, the “MIC, HEK 293 (cytotoxicity)” value in series [2] was 16 µg/mL (≈ 32.8 µM). Besides, the MIC was above 128 µg/mL in series [3] and 128 µg/mL (≈ 262 µM) in series [4].

For the molecule `COc1nc2ccc(Br)cc2cc1[C@@H](c1ccccc1)[C@@](O)(CCN(C)C)c1cccc2ccccc12` [Bedaquiline, bedaquiline, reference compound], the “MIC, HEK 293 (cytotoxicity)” value in series [2] is above 32 µg/mL.

As to `CCN1CCC(CCNCc2cc(-c3ccc(OC)c(F)c3)cnc2SCc2ccccc2)CC1` [WSA 306], in series [1], the “Hill coefficient (Hill slope)” value is on record as -0.9. Besides, in series [1], the concentration for half-maximal inhibition (IC50) is 1070 nM. In series [2], the “MIC, HEK 293 (cytotoxicity)” value is 16 µg/mL (≈ 32.4 µM). Moreover, the minimal inhibitory concentration (MIC) in series [3] and in series [4] was 32 µg/mL (≈ 64.8 µM) in each case.

With `CCN1CCC(CCNCc2cc(-c3ccc(F)cc3)cnc2SCc2ccccc2)CC1` [WSA 307], in series [1], the “Hill coefficient (Hill slope)” value is listed as -0.8 and the IC50 was 1160 nM. The “MIC, HEK 293 (cytotoxicity)” value in series [2] is 8 µg/mL (≈ 17.3 µM). The MIC in series [3] is 32 µg/mL (≈ 69 µM). Further, in series [4], the MIC stood at 32 µg/mL (≈ 69 µM).

On to `CN1CCN(CCNCc2cc(-c3ccccc3)cnc2SCc2ccccc2)CC1` [WSA 277], for which, in series [1], the “Hill coefficient (Hill slope)” value is -0.7 and the 50% inhibitory concentration (IC50) was 2170 nM. In addition, in series [2], the “MIC, HEK 293 (cytotoxicity)” value was determined as 16 µg/mL (≈ 37 µM). The MIC in series [3] stood at 128 µg/mL (≈ 296 µM). The MIC in series [4] was 32 µg/mL (≈ 74 µM).

`CNC(C)C1CCC(N)C(OC2C(N)CC(N)C(OC3OCC(C)(O)C(NC)C3O)C2O)O1` (stereo not drawn) [Gentamicin, reference compound]: the results for the MIC in series [3] and in series [4] were above 16 µg/mL and 8 µg/mL (≈ 16.8 µM), respectively.

As for `c1ccc(CSc2ncccc2CNCc2ccc(CN3CCCC3)cc2)cc1` [WSA 267], in series [1], the “Hill coefficient (Hill slope)” value is reported as -0.7. For the same molecule, the IC50 in series [1] was 91700 nM. The MIC in series [3] and in series [4] was 128 µg/mL (≈ 317 µM) in each case.
